By melting point is commonly meant the temperature, or range, at which the solid turns liquid.

This passage reports pest or weed control and melting point results from patent US12077503B2, “Substituted cyclic amides and their use as herbicides” (FMC CORPORATION, priority 2015, dated 2024).

Data set [1] has as its system Kochia (Kochia scoparia). The data set can be described thus: Test A postemergence. Type of data set: in vivo. Particulars: Bassia scoparia, post-emergence, 240 h; for pest or weed control at 125 g/ha: 125 g ai/ha; for pest or weed control at 500 g/ha: 500 g ai/ha, 0 to 100 scale, 0 is no effect, 100 is complete control. The gist of the method: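 Visual injury scores from 0, no effect, to 100, complete control, were assigned versus untreated controls roughly 10 d after treatment in the greenhouse. Test chemicals, formulated with surfactant in a non-phytotoxic solvent, were applied to planted seeds as a preemergence soil spray or postemergence to one- to two-leaf plants 2 to 10 cm tall, in loam–sand soil.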

Data set [2] relates to sedge, umbrella (small-flower umbrella sedge, Cyperus difformis). The data set can be described thus: Test B flooded paddy test. The data set is classed as in vivo. Particulars: Cyperus difformis, Flood, 250 g ai/ha, read-out: Sedge, Umbrella plant response rating. The gist of the method: (§1)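 Percent control, visually estimated after 13–15 d in the greenhouse on a 0–100 basis, compares treated pots with untreated ones; compound was put into paddy water 3 cm above the soil when plants had two leaves.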

For data set [3], the system named is ducksalad (Heteranthera limosa). Kind of data set: Test B flooded paddy test. The following applies: Heteranthera limosa, Flood, 250 g ai/ha, read-out: Ducksalad plant response rating. Type of data set: in vivo. The gist of the method: as §1
In data set [4] the test system is rice (Oryra sativa). The data set can be described thus: Test B flooded paddy test. The data set is classed as in vivo. The following applies: Oryza sativa, Flood, 250 g ai/ha, read-out: Rice plant response rating. The gist of the method: as §1
Data set [5] deals with barnyardgrass (Echinochloa crus-galli). Kind of data set: Test B flooded paddy test. The data set is classed as in vivo. Particulars: Echinochloa crus-galli, Flood, 250 g ai/ha, read-out: Barnyardgrass plant response rating. The gist of the method: as §1
Setting [6] is: Postemergence, visual injury after approximately 10 d, 0 to 100 scale where 0 is no effect and 100 is complete control, read-out: Plant response rating, Kochia.
The mark [7] stands for this setting: scale of 0 to 100 where 0 is no effect and 100 is complete control.
Setting [8] is: postemergence, visual injury on 0 to 100 scale (0 no effect, 100 complete control), approx. 10 d, read-out: Kochia plant response rating.
Setting [9] is: postemergence, read-out: Kochia plant response rating.
[10] abbreviates: 0 to 100 scale where 0 is no effect and 100 is complete control.
[11] abbreviates: postemergence, visual injury vs untreated controls after approx. 10 d, 0 = no effect, 100 = complete control, read-out: Kochia plant response rating (0 to 100 scale).

Where two headings read alike, the source gives them in different places.

In turn, `Cc1cccc(NC(=O)[C@H]2C(=O)N(C)C[C@@H]2c2ccc(C(F)(F)F)cc2)c1C` [Compound 941] registered a melting point of 166 to 169 °C. For the same molecule, in data set [1] (setting [6]), the pest or weed control at 125 g/ha came to 0%. Further, in data set [2] (setting [7]), the pest or weed control at 250 g/ha was 0%. In addition, the pest or weed control at 250 g/ha in data set [3] (setting [7]) came out at 35%. Moreover, the pest or weed control at 250 g/ha in data set [4] (setting [7]) amounted to 0%. Besides, in data set [5] (setting [7]), the pest or weed control at 250 g/ha stood at 0%.
`CCc1cccc([C@H]2CCNC(=O)[C@@H]2C(=O)Nc2cccc(F)c2F)c1` [Compound 1058]: the melting point fell in the range of 128 to 132 °C. For the same molecule, the pest or weed control at 125 g/ha in data set [1] (setting [8]) turned out to be 0%. Moreover, the pest or weed control at 500 g/ha in data set [1] (setting [9]) was 20%. The pest or weed control at 250 g/ha in data set [2] (setting [10]) is 0%. For the same molecule, in data set [3] (setting [10]), the pest or weed control at 250 g/ha was 0%. Further, the pest or weed control at 250 g/ha in data set [4] (setting [10]) stood at 25%. In data set [5] (setting [10]), the pest or weed control at 250 g/ha came out at 35%.
As for `CN1C[C@H](c2ccc(C(F)(F)F)cc2)[C@@H](C(=O)Nc2ccc(F)cc2Br)C1=O` [Compound 934], the melting point lay in the range of 123 to 126 °C. For the same molecule, the pest or weed control at 125 g/ha in data set [1] (setting [6]) was 20%. Also, the pest or weed control at 250 g/ha in data set [2] (setting [7]) turned out to be 0%. Further, in data set [3] (setting [7]), the pest or weed control at 250 g/ha was 60%. The pest or weed control at 250 g/ha in data set [4] (setting [7]) stood at 0%. In addition, the pest or weed control at 250 g/ha in data set [5] (setting [7]) was 0%.
The molecule `O=C1NC[C@H](c2nccs2)[C@H]1C(=O)Nc1cccc(F)c1F` [Compound 1182] showed a melting point of 139.5 to 153 °C. The pest or weed control at 125 g/ha in data set [1] (setting [11]) came to 0%. Also, the pest or weed control at 500 g/ha in data set [1] (setting [9]) came to 0%. For the same molecule, in data set [2] (setting [10]), the pest or weed control at 250 g/ha came to 0%. Besides, the pest or weed control at 250 g/ha in data set [3] (setting [10]) was determined as 0%. For the same molecule, the pest or weed control at 250 g/ha in data set [4] (setting [10]) turned out to be 0%. The pest or weed control at 250 g/ha in data set [5] (setting [10]) came to 0%.
In turn, `Cc1cc(F)ccc1NC(=O)[C@H]1C(=O)N(C)C[C@@H]1c1ccc(C(F)(F)F)cc1` [Compound 936] returned a melting point of 119 to 122 °C. In addition, in data set [1] (setting [6]), the pest or weed control at 125 g/ha was determined as 20%. In addition, the pest or weed control at 250 g/ha in data set [2] (setting [7]) was found to be 0%. Also, the pest or weed control at 250 g/ha in data set [3] (setting [7]) was determined as 85%. Moreover, the pest or weed control at 250 g/ha in data set [4] (setting [7]) came to 0%. The pest or weed control at 250 g/ha in data set [5] (setting [7]) is 0%.
As for `CN1CC(c2cccc(O)c2)C(C(=O)Nc2cccc(F)c2F)C1=O` (stereo not shown) [Compound 1130], the melting point was 216 to 220 °C. For the same molecule, in data set [1] (setting [8]), the pest or weed control at 125 g/ha came to 0%. The pest or weed control at 500 g/ha in data set [1] (setting [9]) is 0%. Further, the pest or weed control at 250 g/ha in data set [2] (setting [10]) was determined as 0%. For the same molecule, the pest or weed control at 250 g/ha in data set [3] (setting [10]) turned out to be 0%. Moreover, the pest or weed control at 250 g/ha in data set [4] (setting [10]) stood at 0%. Further, the pest or weed control at 250 g/ha in data set [5] (setting [10]) was 0%.
Take `CN1C[C@H](c2ccc(C(F)(F)F)cc2)[C@@H](C(=O)Nc2ccccc2[S+](C)[O-])C1=O` (stereo partly shown) [Compound 915]: the melting point fell in the range of 181 to 184 °C. The pest or weed control at 125 g/ha in data set [1] (setting [6]) came to 20%. Besides, the pest or weed control at 250 g/ha in data set [2] (setting [7]) was 0%. Besides, the pest or weed control at 250 g/ha in data set [3] (setting [7]) was 100%. The pest or weed control at 250 g/ha in data set [4] (setting [7]) is 20%. In data set [5] (setting [7]), the pest or weed control at 250 g/ha was found to be 40%.
`Cc1cccc(NC(=O)[C@H]2C(=O)N(C)C[C@@H]2c2ccc(C(F)(F)F)cc2)c1F` [Compound 939]: the melting point lay within 178 to 181 °C. Further, the pest or weed control at 125 g/ha in data set [1] (setting [6]) is 0%. Moreover, in data set [2] (setting [7]), the pest or weed control at 250 g/ha was found to be 0%. Further, the pest or weed control at 250 g/ha in data set [3] (setting [7]) worked out at 40%. Besides, the pest or weed control at 250 g/ha in data set [4] (setting [7]) worked out at 0%. Besides, the pest or weed control at 250 g/ha in data set [5] (setting [7]) was 0%.
`CN1CC(c2cccc(I)c2)C(C(=O)Nc2ccccc2F)C1=O` (stereo not shown) [Compound 846]: the melting point lay in the range of 132 to 135 °C. For the same molecule, the pest or weed control at 125 g/ha in data set [1] (postemergence, visual injury rating after approximately 10 d, read-out: Kochia plant response rating (0 to 100 scale, 0 no effect, 100 complete control)) turned out to be 40%. The pest or weed control at 250 g/ha in data set [2] (setting [7]) was 0%. Besides, the pest or weed control at 250 g/ha in data set [3] (setting [7]) amounted to 60%. The pest or weed control at 250 g/ha in data set [4] (setting [7]) was 0%. Moreover, in data set [5] (setting [7]), the pest or weed control at 250 g/ha is 60%.
`CN1CC(c2cccc(/C=C/Cl)c2)C(C(=O)Nc2ccccc2F)C1=O` (stereo not shown) [Compound 1129]: the melting point is 97 to 101 °C. Besides, the pest or weed control at 125 g/ha in data set [1] (setting [8]) was 0%. Also, the pest or weed control at 500 g/ha in data set [1] (setting [9]) turned out to be 0%. Further, in data set [2] (setting [10]), the pest or weed control at 250 g/ha was found to be 0%. For the same molecule, the pest or weed control at 250 g/ha in data set [3] (setting [10]) came to 70%. For the same molecule, the pest or weed control at 250 g/ha in data set [4] (setting [10]) turned out to be 0%. In data set [5] (setting [10]), the pest or weed control at 250 g/ha was determined as 20%.
Consider `CCc1cc([C@H]2CN(C)C(=O)[C@@H]2C(=O)Nc2ccccc2F)cs1` [Compound 1156], for which the melting point was 117 to 121 °C. Besides, the pest or weed control at 125 g/ha in data set [1] (setting [11]) is 0%. For the same molecule, the pest or weed control at 500 g/ha in data set [1] (setting [9]) stood at 20%. The pest or weed control at 250 g/ha in data set [2] (setting [10]) came out at 0%. Also, the pest or weed control at 250 g/ha in data set [3] (setting [10]) came out at 100%. For the same molecule, in data set [4] (setting [10]), the pest or weed control at 250 g/ha is 20%. In addition, in data set [5] (setting [10]), the pest or weed control at 250 g/ha was determined as 40%.
As for `O=C1NC[C@H](c2ccc(F)c(OC(F)(F)C(F)F)c2)[C@H]1C(=O)Nc1ccc(F)cc1F` (racemic) [Compound 1154], the melting point is 102 to 106 °C. Also, the pest or weed control at 125 g/ha in data set [1] (setting [8]) is 60%. For the same molecule, in data set [1] (setting [9]), the pest or weed control at 500 g/ha was found to be 60%. In data set [2] (setting [10]), the pest or weed control at 250 g/ha came out at 0%. Besides, the pest or weed control at 250 g/ha in data set [3] (setting [10]) worked out at 100%. The pest or weed control at 250 g/ha in data set [4] (setting [10]) worked out at 30%. The pest or weed control at 250 g/ha in data set [5] (setting [10]) was determined as 30%.
`O=C1NCC[C@H](c2cccc(Cl)c2)[C@H]1C(=O)Nc1ccccc1F` [Compound 1159] had a melting point of 141 to 143 °C. For the same molecule, in data set [1] (setting [11]), the pest or weed control at 125 g/ha came out at 0%. Also, the pest or weed control at 500 g/ha in data set [1] (setting [9]) came to 0%. The pest or weed control at 250 g/ha in data set [2] (setting [10]) was 0%. Further, the pest or weed control at 250 g/ha in data set [3] (setting [10]) stood at 70%. Also, the pest or weed control at 250 g/ha in data set [4] (setting [10]) is 0%. Further, in data set [5] (setting [10]), the pest or weed control at 250 g/ha worked out at 0%.
